According to PMC5739345, “Identification of iridoid synthases from Nepeta species: Iridoid cyclization does not determine nepetalactone stereochemistry” (Phytochemistry, 2018):

Legend:
ISY (C. roseus) = molecular target: T1, ISY (C. roseus) (Catharanthus roseus, UniProt K7WDL7); assay: end point assay, GC-MS of products; format: biochemical; settings: 500 μM 8-oxogeranial, 1 mM NADPH, 200 mM MOPS pH 7.0, 100 mM NaCl, 0.5% THF, 30 °C, 3 h; positive control
T1 construct: positive control; construct not described here; dimer 83 kDa

NcISY2 = molecular target: T2, NcISY2 (Nepeta cataria, UniProt A0A221J5X1); assay: end point assay, GC-MS of products; format: biochemical; settings: 500 μM 8-oxogeranial, 1 mM NADPH, 200 mM MOPS pH 7.0, 100 mM NaCl, 0.5% THF, 0.5 μM enzyme, 30 °C, 3 h
T2 construct: gene ISY2; N-terminal His-tag (pOPINF), E. coli soluBL21 (DE3), Ni-NTA and gel filtration; not fully homogeneous; dimer fraction
T2 sequence (A0A221J5X1 2-397): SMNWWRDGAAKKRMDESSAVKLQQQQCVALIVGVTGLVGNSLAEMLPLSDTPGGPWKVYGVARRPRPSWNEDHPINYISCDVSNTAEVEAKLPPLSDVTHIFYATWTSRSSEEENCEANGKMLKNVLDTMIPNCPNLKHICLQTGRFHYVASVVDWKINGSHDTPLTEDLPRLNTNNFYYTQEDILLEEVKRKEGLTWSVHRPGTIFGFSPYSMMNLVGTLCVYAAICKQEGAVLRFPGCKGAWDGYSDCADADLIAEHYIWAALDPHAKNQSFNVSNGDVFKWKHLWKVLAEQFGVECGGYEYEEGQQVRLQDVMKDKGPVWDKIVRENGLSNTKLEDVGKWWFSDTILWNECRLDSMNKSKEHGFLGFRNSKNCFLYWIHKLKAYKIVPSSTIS

T1 sequence (K7WDL7 whole entry): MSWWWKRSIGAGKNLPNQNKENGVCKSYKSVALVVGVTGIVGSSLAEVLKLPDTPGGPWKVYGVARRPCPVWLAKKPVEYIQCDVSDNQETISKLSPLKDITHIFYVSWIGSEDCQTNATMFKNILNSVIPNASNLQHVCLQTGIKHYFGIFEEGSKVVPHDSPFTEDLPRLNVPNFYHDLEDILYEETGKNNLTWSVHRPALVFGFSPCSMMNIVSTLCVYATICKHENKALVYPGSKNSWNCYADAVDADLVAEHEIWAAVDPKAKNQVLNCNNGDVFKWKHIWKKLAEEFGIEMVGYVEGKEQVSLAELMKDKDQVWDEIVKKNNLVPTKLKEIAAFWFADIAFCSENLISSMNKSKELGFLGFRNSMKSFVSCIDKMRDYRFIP

## C/C(C=O)=C\CC/C(C)=C/C=O [8-oxogeranial]
ISY (C. roseus)
  end point assay, GC-MS of products: a positive control was conducted with ISY (C. roseus)
NcISY2
  end point assay, GC-MS of products: the other (NcISY2 and NmISY2) has robust catalytic activity toward the 8-oxogeranial substrate
